US11884649B2, “IRE1α inhibitors and uses thereof” (The Regents of the University of California, priority 2020, dated 2024)

How the values were obtained:
[1] = target: T1, IRE1α* (Homo sapiens, UniProt O75460); experiment: In vitro RNase activity assay, XBP1-mini substrate cleavage, inhibitor titrations; assay type: biochemical; settings: relative to apo IRE1α*
T1 construct: human IRE1α (residues 547-977, IRE1α*) was expressed in SF9 insect cells; His6 (N); made in house; host or cells: Sf9 insect cells (Bac-to-Bac baculovirus)
Description: In Vitro RNase Activity Assay Inhibitor Titrations
50 nM IRE1α* was incubated with inhibitor (initial concentration of 10 or 60 μM, three-fold serial dilutions) or DMSO for 30 min in assay buffer (20 mM Tris, 50 mM NaCl, 1 mM MgCl2, 2 mM DTT, 0.05% Triton X-100 (v/v), pH 7.5). Assays were initiated by adding 10 μL of XBP1-mini substrate (5′-Alex647-CAUGUCCGCAGCGCAUG-IowaBlack-FQ-3′ (SEQ ID NO: 1); IDT) to the wells at a final concentration of 200 nM and a final well volume of 30 μL. Fluorescence was detected on a Perkin Elmer Envision Microplate Reader at excitation and emission wavelengths of 650 nm and 665 nm. Dose-response curves were fit using “one-site fit log IC50” parameter using GraphPad Prism analysis software.

[2] = test system: XBP1 mRNA splicing; experiment: XBP1 splicing in ER-stressed INS-1 cells; assay type: cell-based, rat; settings: DTT, 20 μM compound
Description: RNA Isolation, Quantitative Real-Time PCR, and Primers
(§1) INS-1 or isogenic IRE1α-overexpressing INS-1 cells were plated onto Poly-D-Lysine coated tissue culture plate and grown for 48 hrs. Inhibitors or DMSO were added to the media and incubated for 1 hour at 37° C. with 5% CO2 prior to addition of ER stress agents or Dox as indicated. RNA was isolated from whole cells using either QIAGEN RNeasy Mini kits or Trizol (Invitrogen) and reverse transcribed as above to obtain total cDNA. Then, XBP-1 primers were used to amplify an XBP-1 amplicon spanning the 26 nt intron from the cDNA samples in a regular 3-step PCR. Thermal cycles were: 5 min at 95° C., 30 cycles of 30 s at 95° C., 30 s at 60° C., and 1 min at 72° C., followed by 72° C. for 15 min, and hold at 4° C. Primers used for XBP-1 mRNA splicing were as follows: sense primer XBP1.3 S (5′ […]-3′ (SEQ ID NO:2)) and antisense primer XBP1.2AS (5′-[…]-3′ (SEQ ID NO:3)). PCR fragments were then digested by PstI, resolved on 3% agarose gels, stained with EtBr and quantified by densitometry using ImageJ (NIH). For standard mRNA detection, generally […] total RNA was reverse transcribed using the QuantiTect Reverse Transcription Kit (QIAGEN). For qPCR, we used SYBR green (QIAGEN) and StepOnePlus Real-Time PCR System (Applied Biosystems). Thermal cycles were: 5 min at 95° C., 40 cycles of 15 sec at 95° C., 30 sec at 60° C. […]

[3] = test system: XBP1 mRNA splicing; experiment: XBP1 splicing in human islets subjected to ER stress; assay type: cell-based; settings: DTT, 20 μM compound
Description: as §1, with “(QIAGEN).” for “(QIAGEN). For qPCR, we used SYBR green (QIAGEN) and StepOnePlus Real-Time PCR System (Applied Biosystems). Thermal cycles were: 5 min at 95° C., 40 cycles of 15 sec at 95° C., 30 sec at 60° C.”
Non-diabetic human islets were obtained and cultured in supplemented Prodo Islet Medium (PIM(S) from Prodo Labs). […] Collected media were analyzed by anti-insulin ELISA (EMD Millipore) and insulin levels were normalized to total protein amount.

T1 sequence (O75460 547-977): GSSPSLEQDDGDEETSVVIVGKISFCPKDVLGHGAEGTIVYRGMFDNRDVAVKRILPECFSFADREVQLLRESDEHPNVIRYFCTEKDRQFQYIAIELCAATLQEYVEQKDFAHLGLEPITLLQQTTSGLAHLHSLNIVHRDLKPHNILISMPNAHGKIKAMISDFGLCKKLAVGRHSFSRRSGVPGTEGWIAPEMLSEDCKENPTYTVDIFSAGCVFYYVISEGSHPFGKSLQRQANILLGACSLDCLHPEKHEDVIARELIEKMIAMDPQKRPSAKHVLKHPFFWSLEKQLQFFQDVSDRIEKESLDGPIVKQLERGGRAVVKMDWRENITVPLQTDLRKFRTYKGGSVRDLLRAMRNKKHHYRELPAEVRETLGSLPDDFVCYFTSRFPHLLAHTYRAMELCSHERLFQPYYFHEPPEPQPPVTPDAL

O=S(=O)(CC(F)(F)F)Nc1ccc(Oc2ncccc2-c2ccnc(N[C@H]3CCCNC3)n2)c2ccccc12 (stereo in doubt) [PAIR1, 2,2,2-trifluoro-N-(4-(3-(2-(piperidin-3-ylamino)pyrimidin-4-yl)pyridin-2-yloxy)naphthalen-1-yl)ethanesulfonamide]
RNase activity of IRE1α* (in words) [1]: partially inhibit
XBP1 mRNA splicing [2]: only weakly inhibited
XBP1 mRNA splicing [3]: only weakly inhibited
